Measurements published in ChEMBL document CHEMBL1201862, “PubChem BioAssay data set” (2004).
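These data come from cells grown in 96-well plates and exposed to compound for 48 hours at five concentrations. GI50 marks 50% less growth.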 Activity calls are given as the source filed them. Rule as the data show it: active = GI50 up to about 1.1 µM and inactive = higher.

Key:
Assay in all cases: NCI-60 cell line screen, 48 h
[1] = system: SF-268
[2] = system: Malme-3M
[3] = system: ACHN
[4] = system: HCT-116
[5] = system: NCI-H460
[6] = system: SK-MEL-28
[7] = system: SF-539
[8] = system: CAKI-1
[9] = system: SNB-75
[10] = system: U-251
[11] = system: SNB-19
[12] = system: A549
[13] = system: NCI-H226
[14] = system: CCRF-CEM
[15] = system: SN12C
[16] = system: 786-0
[17] = system: K562
[18] = system: OVCAR-5

Measured: GI50

S=c1nc(N2CCCCC2)ss1
inactive: [1] 21.1 µM | [2] 19.3 µM | [3] 27 µM | [4] 17.7 µM | [5] 22.3 µM | [6] 18.4 µM | [7] 18.9 µM | [8] 27.7 µM | [9] 24.4 µM | [10] 18.2 µM | [11] 27.6 µM | [12] 28.4 µM | [13] 43.9 µM | [14] 11.7 µM | [15] 17 µM | [16] 20.9 µM | [17] 18.4 µM | [18] > 100 µM

COS(=O)CCOC(=O)c1ccccc1SSc1ccccc1C(=O)OCCS(=O)OC (centres undefined)
inactive: [1] 32.3 µM | [2] 18.6 µM | [3] 43.7 µM | [5] > 100 µM | [6] 30.7 µM | [7] 25.3 µM | [8] 27.2 µM | [9] 6.31 µM | [10] 69.7 µM | [11] > 100 µM | [12] > 100 µM | [14] 3.79 µM | [15] 26.1 µM | [16] 20.3 µM | [17] 20.6 µM | [18] 40.9 µM

O=S(=O)(c1ccccc1)N1CCC1c1ccccc1 (centres undefined)
inactive: [1] 87.1 µM | [2] > 100 µM | [3] > 100 µM | [4] 87.5 µM | [5] > 100 µM | [6] > 100 µM | [7] > 100 µM | [9] 56.4 µM | [10] > 100 µM | [11] > 100 µM | [12] > 100 µM | [13] > 100 µM | [14] > 100 µM | [15] > 100 µM | [16] > 100 µM | [17] 54.3 µM

Cc1ccccc1C1=[N+]([O-])c2ccc(Cl)cc2C1=O
inactive: [1] 18.5 µM | [2] 16.9 µM | [3] 12.9 µM | [4] 7.46 µM | [5] 15.4 µM | [6] 21.1 µM | [7] 17.7 µM | [9] 19.8 µM | [10] 17.7 µM | [11] 28.1 µM | [12] 19.6 µM | [13] 14.4 µM | [14] 3.82 µM | [15] 15.2 µM | [16] 18.9 µM | [17] 6.12 µM | [18] 23.2 µM

COC(=O)N/N=C/C(=C/Nc1ccccc1)[N+](=O)[O-]
inactive: [1] > 100 µM | [3] > 100 µM | [4] > 100 µM | [5] > 100 µM | [6] > 100 µM | [10] > 100 µM | [11] > 100 µM | [12] > 100 µM | [14] > 100 µM | [15] > 100 µM | [16] > 100 µM | [17] > 100 µM

N#C[C-](C#N)[n+]1ccc(Cl)cc1
inactive: [1] 14.4 µM | [2] 15.8 µM | [4] 14.5 µM | [5] 22.5 µM | [7] 20.4 µM | [8] 3.53 µM | [9] 17.5 µM | [10] 16.2 µM | [11] 32.1 µM | [12] 34.3 µM | [13] 25.3 µM | [14] 9.27 µM | [15] 14.4 µM | [16] 18.7 µM | [17] 3.03 µM | [18] 18.7 µM

COc1cccc2c1C(=O)c1c(O)c3c(c(O)c1C2=O)CC(O)(C(C)=O)CC3OC1CC([N+](C)(C)C)C(O)C(C)O1 (centres undefined)
inactive: [1] > 100 µM | [2] > 100 µM | [3] > 100 µM | [4] 66.8 µM | [5] 36.4 µM | [6] > 100 µM | [7] 47.2 µM | [8] > 100 µM | [9] 52.2 µM | [10] 55.1 µM | [11] > 100 µM | [12] > 100 µM | [13] 80.7 µM | [14] 48.1 µM | [15] 50.7 µM | [16] > 100 µM | [17] 23.1 µM | [18] > 100 µM

CC(=O)NC1C(OCc2ccccc2)OC(COC(=O)CCCCCCCCCCNc2ccc([N+](=O)[O-])c3[nH]c4ccccc4c(=O)c23)C(O)C1OC(C)C(=O)NC(C)C(=O)NC(CCC(N)=O)C(=O)OCc1ccccc1 (centres undefined)
inactive: [1] > 100 µM | [3] > 100 µM | [4] > 100 µM | [5] > 100 µM | [6] > 100 µM | [7] > 100 µM | [8] > 100 µM | [9] > 100 µM | [10] > 100 µM | [11] > 100 µM | [12] > 100 µM | [13] > 100 µM | [15] > 100 µM | [16] > 100 µM | [17] > 100 µM | [18] > 100 µM

Sc1ccccc1S
inactive: [1] > 100 µM | [2] > 100 µM | [3] > 100 µM | [5] > 100 µM | [6] > 100 µM | [8] > 100 µM | [10] > 100 µM | [11] > 100 µM | [12] > 100 µM | [15] > 100 µM | [16] > 100 µM | [17] > 100 µM

CC1=C(C(=O)CC(=O)C(=O)Nc2cccc(Cl)c2C)Sc2ccccc2N1
inactive: [1] > 100 µM | [2] > 100 µM | [3] > 100 µM | [4] > 100 µM | [5] > 100 µM | [6] > 100 µM | [7] > 100 µM | [8] > 100 µM | [10] > 100 µM | [11] > 100 µM | [12] > 100 µM | [13] > 100 µM | [14] > 100 µM | [15] > 100 µM | [16] > 100 µM | [17] > 100 µM | [18] > 100 µM

C/C(=N\NC(=O)CC(=O)Nc1ccc(Cl)cc1)c1cc2ccccc2oc1=O
inactive: [2] > 100 µM | [3] > 100 µM | [4] > 100 µM | [5] > 100 µM | [6] > 100 µM | [7] > 100 µM | [9] 66.1 µM | [10] > 100 µM | [11] > 100 µM | [12] > 100 µM | [13] > 100 µM | [14] > 100 µM | [15] > 100 µM | [16] > 100 µM | [17] > 100 µM

Cc1ccc(S(=O)(=O)CNC(=S)CCCC(=S)NCS(=O)(=O)c2ccc(C)cc2)cc1
inactive: [1] > 100 µM | [2] 50.7 µM | [4] 49 µM | [5] > 100 µM | [7] > 100 µM | [8] > 100 µM | [9] > 100 µM | [10] 59 µM | [11] > 100 µM | [12] > 100 µM | [13] > 100 µM | [14] 21.3 µM | [15] > 100 µM | [16] > 100 µM | [17] 53.6 µM | [18] > 100 µM
